Key:
[1] = test system: HCT116-MTAP-KO; experiment: Cell killing in HCT116 isogenic pair (Cell Titer-Glo viability), MTAP knock-out cells; type: cell-based, human; details: Homo sapiens, HCT-116, 144 h, 6 days incubation, 0-10 μM, * = more than 50% viability inhibition at tested concentration without a full curve
Description: (§1) HCT116 cell line (ATCC, CCL-247) was isolated from the colon of an adult with colon cancer. It has a mutation in codon 13 of the ras proto-oncogene and can be used as a positive control for PCR assays of mutation in this codon. HCT116-MTAP-KO was knocked-out-MTAP-gene based HCT116, and a single clone was passed for this assay. HCT116-mock-RNA-KO was knocked-out-mock-gene based HCT116 with MTAP wildtype genotype. The base medium for HCT116 isogenic pair is RPMI 1640, HEPES (Gibco, 22400105). To make the complete growth medium, added the following components to the base medium: fetal bovine serum to a final concentration of 10% (Gibco, 10099-141C). The cell line was grown in a humidified 5% CO2 atmosphere at 37° C. and regularly tested for the presence of mycoplasma with MpcoAlert™ PLUS Mycoplasma Detection Kit (Lonzak LT07-710).
(§2) • Seeded HCT116-mock-RNA-KO (4E2/well) or HCT116-MTAP-KO (4E2/well) cells into a 96-well plate (Greiner: 655090), 100 μL/well. • Incubated at 37° C., 5% CO2, overnight. • Added 50 μL fresh growth medium containing serial dilution of test compounds for a final test compound concentration of 0-10 μM to each well. • Incubated at 37° C., 5% CO2, 6 days. • The cell viability was detected by Cell Titer-Glo (Promega, G7573). Added 70 μL of CeliTiter-Glo® reagent in each well. • Incubated at room temperature for 10 minutes to stabilize luminescent signal. • Analyzed with Microplate Reader (TECAN, SPARK) and fit IC50 using Prism® 9.

[2] = test system: HCT116-mock-RNA-KO; experiment: Cell killing in HCT116 isogenic pair (Cell Titer-Glo viability), mock knock-out cells with MTAP wildtype genotype; type: cell-based, human; details: Homo sapiens, HCT-116, 144 h, 6 days incubation, 0-10 μM
Description: as §1, §2

SMILES | IC50 [1] [nM] | IC50 [2] [nM]
COCCN(C(=O)c1cc2nc(N)c3c(c2[nH]1)COC3)[C@H](C)c1ncc(C(F)(F)F)cc1F [Example 157, (R)-5-amino-N-(1-(3-fluoro-5-(trifluoromethyl)pyridin-2-yl)ethyl)-N-(2-methoxyethyl)-6,8-dihydro-1H-furo[3,4-d]pyrrolo[3,2-b]pyridine-2-carboxamide] | 64 | > 10000
C[C@@H](c1ccc(C2CC2)cc1F)N(C)C(=O)c1cc2nc(N)c3c(c2[nH]1)COC3 [Example 174, (S)-5-amino-N-(1-(4-cyclopropyl-2-fluorophenyl)ethyl)-N-methyl-6,8-dihydro-1H-furo[3,4-d]pyrrolo[3,2-b]pyridine-2-carboxamide] | 478 | 6070
CCN(C(=O)c1cc2nc(N)c3c(c2[nH]1)COC3)[C@@H](C)c1ccc(C(F)(F)F)cn1 [Example 114, (S)-5-amino-N-ethyl-N-(1-(5-(trifluoromethyl)pyridin-2-yl)ethyl)-6,8-dihydro-1H-furo[3,4-d]pyrrolo[3,2-b]pyridine-2-carboxamide] | 3630 | > 10000
CCN(C(=O)c1cc2nc(N)c3c(c2[nH]1)COC3)[C@@H]1COC2(CC2)c2cc(C(F)(F)F)ccc21 [Example 161, (S)-5-amino-N-ethyl-N-(7′-(trifluoromethyl)spiro[cyclopropane-1,1′-isochroman]-4′-yl)-6,8-dihydro-1H-furo[3,4-d]pyrrolo[3,2-b]pyridine-2-carboxamide] | 39 | 2800
C[C@H]1OCc2c1c(N)nc1cc(C(=O)N(Cc3ccc(C(F)(F)F)cn3)Cc3ncccc3F)[nH]c21 [Example 38, (R)-5-amino-N-((3-fluoropyridin-2-yl)methyl)-6-methyl-N-((5-(trifluoromethyl)pyridin-2-yl)methyl)-6,8-dihydro-1H-furo[3,4-d]pyrrolo[3,2-b]pyridine-2-carboxamide] | 6.3 | 665
C[C@H](c1ncccn1)N(Cc1ncc(Br)cc1F)C(=O)c1cc2nc(N)c3c(c2[nH]1)COC3 [Example 41, (R)-5-amino-N-((5-bromo-3-fluoropyridin-2-yl)methyl)-N-(1-(pyrimidin-2-yl)ethyl)-6,8-dihydro-1H-furo[3,4-d]pyrrolo[3,2-b]pyridine-2-carboxamide] | 6.6 | 586
CCN(C(=O)c1cc2nc(N)c3c(c2[nH]1)COC3)[C@H](C)c1ccc(C2CC2)cc1F [Example 177, (R)-5-amino-N-(1-(4-cyclopropyl-2-fluorophenyl)ethyl)-N-ethyl-6,8-dihydro-1H-furo[3,4-d]pyrrolo[3,2-b]pyridine-2-carboxamide] | 74 | 2690
CO[C@@H]1CCOC[C@H]1N(Cc1ccc(-c2c(F)cncc2F)cn1)C(=O)c1cc2nc(N)c3c(c2[nH]1)COC3 [Example 15, 5-amino-N-((3′,5′-difluoro-[3,4′-bipyridin]-6-yl)methyl)-N-((3R,4R)-4-methoxytetrahydro-2H-pyran-3-yl)-6,8-dihydro-1H-furo[3,4-d]pyrrolo[3,2-b]pyridine-2-carboxamide] | 8.1 | 225
Nc1nc2cc(C(=O)N(Cc3ncccc3F)Cc3c(F)cc(F)cc3F)[nH]c2c2c1COC2 [Example 47, 5-amino-N-((3-fluoropyridin-2-yl)methyl)-N-(2,4,6-trifluorobenzyl)-6,8-dihydro-1H-furo[3,4-d]pyrrolo[3,2-b]pyridine-2-carboxamide] | 4.4 | 605
C[C@@H]1OC[C@H](N(C)C(=O)c2cc3nc(N)c4c(c3[nH]2)COC4)c2ccc(C(F)(F)F)cc21 [Example 58, 5-amino-N-methyl-N-((1S,4R)-1-methyl-7-(trifluoromethyl)isochroman-4-yl)-6,8-dihydro-1H-furo[3,4-d]pyrrolo[3,2-b]pyridine-2-carboxamide] | 1080 | > 10000

Reference: patent US20240368177A1, “5-AMINO-6,8-DIHYDRO-1H-FURO[3,4-d]PYRROLO[3,2-b]PYRIDINE-2-CARBOXAMIDE DERIVATIVES AS MTA-COOPERATIVE INHIBITORS OF PRMT5” (BeiGene Switzerland GmbH, priority 2023, published 2024)
